According to paper PMC3759246 (Bioorganic & medicinal chemistry letters, 2013):
pEC50: −log10 of the molar value. Marks after values point to notes of the source that are not given here.

Columns and labels:
[1] = cited from earlier work
[2] = test system: WT HIV-1 (IIIB); experiment: microbe, parasite or virus in culture; conditions: Human immunodeficiency virus 1, IIIB, MT2, read-out: EC50 in cell assays

Row | SMILES | Aqueous solubility S [1] | pEC50 [2]
1 | Cc1cc(C#N)cc(C)c1Oc1nc(Nc2ccc(C#N)cc2)nc(N)c1Br [etravirine] | ≪ 1 ^b μg/mL | –
2 | Cc1ccnc2c1NC(=O)c1cccnc1N2C1CC1 [nevirapine] | – | ~7.00
